Data: PubChem BioAssay AID256 (DTP/NCI, 2004)
Several values for one entry are separate records, joined by “and”; a condition that tells them apart may be missing. Equal values may be shown once. Toxic doses and inconclusive results are not listed. Rule for the calls: active = survival T/C of 150% or more; inactive = T/C below 125% in these data.

Tested on: CD2F1 mice, L1210 leukemia ip, survival T/C
Assay: NCI In Vivo Anticancer Drug Screen. Data for tumor model L1210 Leukemia (intraperitoneal) in CD2F1 (CDF1) mice
Details: endpoint: mean survival time, higher = longer survival
How it was run: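 Antitumor effect is scored in animals hosting a serially transplanted tumor. Values compare compound-dosed animals against vehicle-only controls as a simple quotient.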

[1] = dose: 100.0 mg/kg/injection, schedule: Q04DX002 (ip), vehicle: saline with Tween-80
[2] = dose: 200.0 mg/kg/injection, schedule: Q04DX002 (ip), vehicle: saline with Tween-80
[3] = dose: 100.0 mg/kg/injection, schedule: Q04DX003 (ip), vehicle: saline
[4] = dose: 200.0 mg/kg/injection, schedule: Q04DX003 (ip), vehicle: saline
[5] = dose: 50.0 mg/kg/injection, schedule: Q01DX009 (ip), vehicle: saline with Tween-80
[6] = dose: 100.0 mg/kg/injection, schedule: Q01DX009 (ip), vehicle: saline with Tween-80
[7] = dose: 200.0 mg/kg/injection, schedule: Q01DX009 (ip), vehicle: saline with Tween-80
[8] = dose: 400.0 mg/kg/injection, schedule: Q01DX009 (ip), vehicle: saline with Tween-80
[9] = dose: 50.0 mg/kg/injection, schedule: Q01DX009 (ip), vehicle: saline
[10] = dose: 100.0 mg/kg/injection, schedule: Q01DX009 (ip), vehicle: saline
[11] = dose: 100.0 mg/kg/injection, schedule: Q01DX001 (ip), vehicle: saline with Tween-80
[12] = dose: 200.0 mg/kg/injection, schedule: Q01DX001 (ip), vehicle: saline with Tween-80
[13] = dose: 400.0 mg/kg/injection, schedule: Q01DX001 (ip), vehicle: saline with Tween-80

Measured: T/C

NC(=O)NNC(=O)C(Cl)(Cl)Cl
inactive: dose: 100.0 mg/kg/injection, schedule: Q04DX002 (ip), vehicle: saline 103 % of control

CCOC(=O)/C(C#N)=N/Nc1ccc(Cl)cc1
inactive: [1] 108 % of control | [2] 100 % of control | dose: 400.0 mg/kg/injection, schedule: Q04DX002 (ip), vehicle: saline with Tween-80 92 % of control

O=[N+]([O-])c1ccc2c(c1)Cc1cc(N(CBr)CBr)ccc1-2
inactive: [3] 109 % of control | [4] 107 % of control | dose: 400.0 mg/kg/injection, schedule: Q04DX003 (ip), vehicle: saline 121 % of control

O=C1CCCC2C1CCCC21OCCO1 (stereo unspecified)
inactive: dose: 25.0 mg/kg/injection, schedule: Q04DX003 (ip), vehicle: saline 93 % of control | dose: 50.0 mg/kg/injection, schedule: Q04DX003 (ip), vehicle: saline 100 % of control | [3] 102 % of control

CC(C(=O)NN)C(O)C(C)(C)O (stereo unspecified)
inactive: dose: 100.0 mg/kg/injection, schedule: Q04DX003 (ip), vehicle: saline with Tween-80 96 % of control | dose: 200.0 mg/kg/injection, schedule: Q04DX003 (ip), vehicle: saline with Tween-80 96 % of control | dose: 400.0 mg/kg/injection, schedule: Q04DX003 (ip), vehicle: saline with Tween-80 103 % of control

NC(=Nc1ccccc1)Nc1ccccc1
inactive: dose: 6.25 mg/kg/injection, schedule: Q04DX002 (ip), vehicle: Klucel (hydroxypropylcellulose) (HPC) 96 % of control | dose: 12.5 mg/kg/injection, schedule: Q04DX002 (ip), vehicle: Klucel (hydroxypropylcellulose) (HPC) 86 % of control | dose: 25.0 mg/kg/injection, schedule: Q04DX002 (ip), vehicle: Klucel (hydroxypropylcellulose) (HPC) 92 % of control | [5] 101 % of control

Cc1ccc(S(=O)(=O)OC2(c3cc(C(F)(F)F)cc(C(F)(F)F)c3)C3CCC2CC3)cc1 (stereo unspecified)
inactive: dose: 37.5 mg/kg/injection, schedule: Q04DX002 (ip), vehicle: saline with Tween-80 102 % of control | dose: 75.0 mg/kg/injection, schedule: Q04DX002 (ip), vehicle: saline with Tween-80 94 % of control | dose: 150.0 mg/kg/injection, schedule: Q04DX002 (ip), vehicle: saline with Tween-80 98 % of control | dose: 300.0 mg/kg/injection, schedule: Q04DX002 (ip), vehicle: saline with Tween-80 102 % of control

S=c1[nH]cc2cnccn12
inactive: dose: 12.5 mg/kg/injection, schedule: Q01DX009 (ip), vehicle: saline with Tween-80 92 % of control and 103 % of control | dose: 25.0 mg/kg/injection, schedule: Q01DX009 (ip), vehicle: saline with Tween-80 97 % of control and 100 % of control | [5] 95 % of control and 105 % of control | [6] 93 % of control and 100 % of control | [7] 104 % of control | [8] 97 % of control

C=C1C(=O)OC2CCCC/C=C\C12 (stereo unspecified)
inactive: [9] 100 % of control | [10] 102 % of control | dose: 200.0 mg/kg/injection, schedule: Q01DX009 (ip), vehicle: saline 97 % of control

CCCCCCCCCCCCCCCCC(CCC)C1CCCCC1 (stereo unspecified)
inactive: [11] 92 % of control | [12] 104 % of control | [13] 101 % of control

CCOC(=O)C(C)CN(CC(C)C(=O)OCC)C(C)(C)C (stereo unspecified)
inactive: [11] 112 % of control | [12] 100 % of control

O=C1CC=C2C3CC4N(CCC45c4cc(O)c(O)cc4N1C25)C/C3=C\CBr (stereo unspecified)
inactive: dose: 75.0 mg/kg/injection, schedule: Q01DX001 (ip), vehicle: saline 115 % of control

CCCCCCCCCCCCCCn1cnc2ncnc(Cl)c21
inactive: dose: 6.25 mg/kg/injection, schedule: Q01DX005 (ip), vehicle: distilled water + Tween-80 100 % of control | dose: 12.5 mg/kg/injection, schedule: Q01DX005 (ip), vehicle: distilled water + Tween-80 100 % of control | dose: 25.0 mg/kg/injection, schedule: Q01DX005 (ip), vehicle: distilled water + Tween-80 93 % of control | dose: 50.0 mg/kg/injection, schedule: Q01DX005 (ip), vehicle: distilled water + Tween-80 90 % of control | dose: 100.0 mg/kg/injection, schedule: Q01DX005 (ip), vehicle: distilled water + Tween-80 91 % of control

NC(=O)N/N=C/C(c1ccccc1)c1ccccc1
inactive: [6] 105 % of control | [7] 94 % of control | [8] 103 % of control

O=C(Cc1ccccc1)c1ccc(Cl)cc1
inactive: [11] 101 % of control | [12] 88 % of control | [13] 93 % of control

Cc1cccc(OCCOC(=O)Nc2cccc(C(F)(F)F)c2)c1
inactive: dose: 90.0 mg/kg/injection, schedule: Q01DX009 (ip), vehicle: acetone 101 % of control | dose: 180.0 mg/kg/injection, schedule: Q01DX009 (ip), vehicle: acetone 103 % of control | dose: 360.0 mg/kg/injection, schedule: Q01DX009 (ip), vehicle: acetone 101 % of control

COc1cccc(/C=N/NC(=O)CNC(=O)Nc2cccc(Cl)c2)c1OC
inactive: [6] 101 % of control | [7] 109 % of control | [8] 103 % of control

O=[N+]([O-])c1ccc(CSC2=NCCN2)cc1
inactive: [10] 106 % of control

COc1cc([NH-])c([NH-])cc1OC.[Cl][Pt+2][Cl]
inactive: dose: 1.25 mg/kg/injection, schedule: Q01DX009 (ip), vehicle: saline with Tween-80 103 % of control | dose: 2.5 mg/kg/injection, schedule: Q01DX009 (ip), vehicle: saline with Tween-80 107 % of control | dose: 5.0 mg/kg/injection, schedule: Q01DX009 (ip), vehicle: saline with Tween-80 105 % of control | dose: 10.0 mg/kg/injection, schedule: Q01DX009 (ip), vehicle: saline with Tween-80 106 % of control | dose: 20.0 mg/kg/injection, schedule: Q01DX009 (ip), vehicle: saline with Tween-80 104 % of control and 111 % of control | dose: 40.0 mg/kg/injection, schedule: Q01DX009 (ip), vehicle: saline with Tween-80 107 % of control | dose: 80.0 mg/kg/injection, schedule: Q01DX009 (ip), vehicle: saline with Tween-80 107 % of control | dose: 160.0 mg/kg/injection, schedule: Q01DX009 (ip), vehicle: saline with Tween-80 92 % of control

CC(C)[NH-].CC(C)[NH-].[Cl][Pt+2][Cl]
inactive: dose: 1.56 mg/kg/injection, schedule: Q01DX009 (ip), vehicle: dextrose 119 % of control | dose: 1.56 mg/kg/injection, schedule: Q01DX009 (ip), vehicle: other 112 % of control | dose: 3.12 mg/kg/injection, schedule: Q01DX009 (ip), vehicle: other 118 % of control | dose: 3.13 mg/kg/injection, schedule: Q04DX003 (ip), vehicle: distilled water + Tween-80 112 % of control | dose: 6.25 mg/kg/injection, schedule: Q01DX009 (ip), vehicle: dextrose 100 % of control | dose: 6.25 mg/kg/injection, schedule: Q04DX003 (ip), vehicle: distilled water + Tween-80 115 % of control | dose: 12.5 mg/kg/injection, schedule: Q01DX009 (ip), vehicle: dextrose 98 % of control and 112 % of control | dose: 50.0 mg/kg/injection, schedule: Q01DX009 (ip), vehicle: other 88 % of control | dose: 50.0 mg/kg/injection, schedule: Q04DX003 (ip), vehicle: distilled water + Tween-80 118 % of control

CCCCCCCCP(=O)(N1CC1C)N1CC1C (stereo unspecified)
inactive: dose: 6.25 mg/kg/injection, schedule: Q01DX009 (ip), vehicle: saline 98 % of control | dose: 12.5 mg/kg/injection, schedule: Q01DX009 (ip), vehicle: saline 94 % of control | dose: 25.0 mg/kg/injection, schedule: Q01DX009 (ip), vehicle: saline 96 % of control | [9] 102 % of control

CCCCCCCC(C)/C=N/NC(=O)c1ccc[n+](C)c1 (stereo unspecified)
inactive: [3] 103 % of control | [4] 101 % of control

CN[C@H]1CCc2cc(OC)c(OC)c(OC)c2-c2ccc(SC)c(=O)cc21
inactive: dose: 12.5 mg/kg/injection, schedule: Q01DX001 (ip), vehicle: Klucel (hydroxypropylcellulose) (HPC) 104 % of control | dose: 25.0 mg/kg/injection, schedule: Q01DX001 (ip), vehicle: Klucel (hydroxypropylcellulose) (HPC) 106 % of control | dose: 50.0 mg/kg/injection, schedule: Q01DX001 (ip), vehicle: Klucel (hydroxypropylcellulose) (HPC) 102 % of control

COC(=O)C(c1ccccc1)C(c1ccccc1)c1ccccc1 (stereo unspecified)
inactive: [1] 95 % of control | [2] 87 % of control

O=S1C2C3CC(C4C=CCC43)C2N1c1ccccc1 (stereo unspecified)
inactive: [11] 92 % of control | [6] 97 % of control | [12] 95 % of control | [7] 97 % of control | [13] 90 % of control | [8] 94 % of control

CC(C)CC(=O)c1ccccc1O
inactive: dose: 100.0 mg/kg/injection, schedule: Q01DX001 (ip), vehicle: saline 100 % of control | dose: 200.0 mg/kg/injection, schedule: Q01DX001 (ip), vehicle: saline 97 % of control | dose: 400.0 mg/kg/injection, schedule: Q01DX001 (ip), vehicle: saline 96 % of control
